According to paper PMC11124870, “Effect of Antioxidants in Medicinal Products on Intestinal Drug Transporters” (Pharmaceutics, 2024):
Like-named read-outs stand apart in the source and are kept apart here.

Legend:
OATP2B1 = target: T1, OATP2B1 (Homo sapiens, UniProt O94956); assay: Uptake transporter assay, 3H-estrone sulfate uptake in HEK-293-OATP2B1 cells
T1 sequence (O94956 1-709): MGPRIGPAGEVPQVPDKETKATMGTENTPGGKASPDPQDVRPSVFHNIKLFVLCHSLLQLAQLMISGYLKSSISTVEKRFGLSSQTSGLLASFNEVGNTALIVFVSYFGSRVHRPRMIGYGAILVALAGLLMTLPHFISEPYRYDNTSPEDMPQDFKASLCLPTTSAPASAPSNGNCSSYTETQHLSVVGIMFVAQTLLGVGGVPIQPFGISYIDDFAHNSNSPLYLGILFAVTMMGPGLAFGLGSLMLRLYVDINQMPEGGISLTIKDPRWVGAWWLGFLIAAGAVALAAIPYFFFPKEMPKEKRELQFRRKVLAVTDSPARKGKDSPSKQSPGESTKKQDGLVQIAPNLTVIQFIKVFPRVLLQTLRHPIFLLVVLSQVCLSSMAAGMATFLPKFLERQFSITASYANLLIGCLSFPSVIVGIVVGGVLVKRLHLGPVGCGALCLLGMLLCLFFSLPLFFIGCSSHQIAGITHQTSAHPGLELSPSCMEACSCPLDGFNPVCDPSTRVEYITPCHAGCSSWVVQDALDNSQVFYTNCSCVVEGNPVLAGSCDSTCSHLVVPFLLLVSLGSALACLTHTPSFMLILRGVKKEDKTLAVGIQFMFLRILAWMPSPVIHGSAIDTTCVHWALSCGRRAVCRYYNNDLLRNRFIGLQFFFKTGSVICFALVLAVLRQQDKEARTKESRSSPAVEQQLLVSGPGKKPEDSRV
Description: The uptake transporter assay was performed as reported previously with minor modifications [15]. A day before the uptake assay, Isoplate 96-well plates were coated with poly-D-lysine in PBS with calcium and magnesium and washed with PBS. […] An assay mixture of ^3H-estrone sulfate, a known inhibitor of OATP2B1, or an antioxidant was prepared and incubated in a 37 °C incubator for 10 min. The cells were washed with ice-cold HBSS three times and incubated with MicroScint fluid on a shaker for 1 h for cell lysis. Radioactivity was measured by liquid scintillation counting with a MicroBeta^2® microplate counter. […] On the day of experiment, cells were washed twice with 0.4 mL of HBSS per well and then pre-incubated for 10–20 min in 0.4 mL of HBSS. […] Uptake of ^3H-valsartan was stopped after 15 min by washing three times with ice-cold HBSS. Cells were lysed in 750 µL of lysis buffer (0.1 N NaOH and 0.1% SDS in double-distilled water) per well while shaking for 60 min. A total of 690 µL of the lysate from each well was then added to 2.5 mL of EcoLite scintillation fluid. The radioactivity was determined on a LS6500 Scintillation Counter (Beckman Coulter). Protein concentration was measured with a Pierce™ BCA protein assay kit. The radioactivity in each well was corrected for protein concentration. All values were determined in triplicate, and the final values are expressed as % uptake relative to negative control (1% DMSO).
Antioxidants were screened at a concentration of 200 μM.

P-gp = target: T2, P-gp (Homo sapiens, UniProt P08183); assay: Vesicular transport assay, 3H-NMQ uptake in P-gp membrane vesicles; format: biochemical; conditions: for % Uptake of 3H-NMQ P-gp: antioxidant 200 µM, uptake with DMSO set as 100%, mean ± SD, three replicates, membrane vesicles
T2 construct: purchased ThermoFisher Scientific GM0015; host or cells: Sf9 membrane vesicles
T2 sequence (P08183 whole entry): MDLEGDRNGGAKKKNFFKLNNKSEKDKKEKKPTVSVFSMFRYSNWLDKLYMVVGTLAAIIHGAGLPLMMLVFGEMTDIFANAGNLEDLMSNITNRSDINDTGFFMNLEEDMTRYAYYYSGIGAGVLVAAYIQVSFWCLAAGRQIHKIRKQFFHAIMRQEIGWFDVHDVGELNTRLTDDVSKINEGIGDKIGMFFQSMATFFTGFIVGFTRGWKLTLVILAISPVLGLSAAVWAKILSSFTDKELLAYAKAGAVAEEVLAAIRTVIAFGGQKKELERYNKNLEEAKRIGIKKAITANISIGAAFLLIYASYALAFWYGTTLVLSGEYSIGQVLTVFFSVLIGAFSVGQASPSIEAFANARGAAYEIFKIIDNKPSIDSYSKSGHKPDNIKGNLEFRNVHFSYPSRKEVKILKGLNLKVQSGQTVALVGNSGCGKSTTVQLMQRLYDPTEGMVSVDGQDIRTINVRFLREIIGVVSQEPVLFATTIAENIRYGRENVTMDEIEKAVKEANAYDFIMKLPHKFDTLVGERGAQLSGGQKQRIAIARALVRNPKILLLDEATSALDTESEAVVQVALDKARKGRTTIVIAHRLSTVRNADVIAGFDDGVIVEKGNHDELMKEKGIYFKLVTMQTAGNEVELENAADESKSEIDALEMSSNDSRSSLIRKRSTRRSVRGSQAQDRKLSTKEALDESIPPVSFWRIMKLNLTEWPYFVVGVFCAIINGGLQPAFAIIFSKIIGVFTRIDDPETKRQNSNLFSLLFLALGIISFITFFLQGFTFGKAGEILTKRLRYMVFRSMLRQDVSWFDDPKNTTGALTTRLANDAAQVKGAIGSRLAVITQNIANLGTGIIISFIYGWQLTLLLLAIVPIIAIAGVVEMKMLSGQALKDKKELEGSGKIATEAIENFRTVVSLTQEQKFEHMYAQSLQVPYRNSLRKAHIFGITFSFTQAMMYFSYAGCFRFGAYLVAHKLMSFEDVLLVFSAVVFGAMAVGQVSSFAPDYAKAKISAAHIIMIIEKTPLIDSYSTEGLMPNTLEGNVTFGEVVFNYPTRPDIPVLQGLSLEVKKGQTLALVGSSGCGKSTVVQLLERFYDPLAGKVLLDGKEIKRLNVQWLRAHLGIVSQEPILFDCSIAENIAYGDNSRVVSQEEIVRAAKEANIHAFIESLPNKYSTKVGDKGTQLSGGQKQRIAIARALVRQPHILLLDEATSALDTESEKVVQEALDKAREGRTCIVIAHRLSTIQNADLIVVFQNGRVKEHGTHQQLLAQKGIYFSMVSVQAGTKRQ
Description: (§1) The vesicular transport assay was performed using Spodoptera frugiperda 9 (Sf9) membrane vesicles overexpressing human P-gp or BCRP, as reported previously with minor modifications. In brief, Isoplate 96-well flat-bottom white plates were preincubated with HBSS containing 0.5 mg/mL BSA on an orbital shaker in a 37 °C incubator at 90 rpm for 60 min followed by washing with HBSS. The assay mixture (75 µL/well) contained a probe substrate and either vehicle control, a known inhibitor of P-gp or BCRP, or an antioxidant, in vesicle uptake buffer (50 mM MOPS-Tris, pH 7.0 + 70 mM KCl + 7.5 mM MgCl2) prewarmed to 37 °C. After addition of the assay mixture, 5 μL/well (5 μg/μL stock concentration of the vesicles) of vesicles overexpressing human P-gp or BCRP was added. Uptake assays were initiated by adding 20 μL of either 25 mM adenosine triphosphate (ATP) or 25 mM adenosine monophosphate (AMP) to a final concentration of 5 mM. Plates were incubated at 37 °C for 20 min with orbital shaking (90 rpm). After 20 min, the uptake was quenched by adding 150 μL of ice-cold wash buffer (40 mM MOPS-Tris, pH 7.0 + 70 mM KCl) to each well, and the mixture was transferred to a 96-well filtration plate. Vacuum was applied, and the vesicles were washed three times with wash buffer. Vesicles were then lysed with 100 µL of MicroScint-20.

[1] = Table S1; source not stated; cited from earlier work
BCRP = target: T3, BCRP (Homo sapiens, UniProt Q9UNQ0); assay: Vesicular transport assay, 3H-CCK8 uptake in BCRP membrane vesicles; format: biochemical; design: purchased ThermoFisher Scientific GM0008; host or cells: Sf9 membrane vesicles; conditions: for % Uptake of 3H-CCK8 BCRP: antioxidant 200 µM, uptake with DMSO set as 100%, mean ± SD, three replicates, membrane vesicles
T3 sequence (Q9UNQ0 1-655): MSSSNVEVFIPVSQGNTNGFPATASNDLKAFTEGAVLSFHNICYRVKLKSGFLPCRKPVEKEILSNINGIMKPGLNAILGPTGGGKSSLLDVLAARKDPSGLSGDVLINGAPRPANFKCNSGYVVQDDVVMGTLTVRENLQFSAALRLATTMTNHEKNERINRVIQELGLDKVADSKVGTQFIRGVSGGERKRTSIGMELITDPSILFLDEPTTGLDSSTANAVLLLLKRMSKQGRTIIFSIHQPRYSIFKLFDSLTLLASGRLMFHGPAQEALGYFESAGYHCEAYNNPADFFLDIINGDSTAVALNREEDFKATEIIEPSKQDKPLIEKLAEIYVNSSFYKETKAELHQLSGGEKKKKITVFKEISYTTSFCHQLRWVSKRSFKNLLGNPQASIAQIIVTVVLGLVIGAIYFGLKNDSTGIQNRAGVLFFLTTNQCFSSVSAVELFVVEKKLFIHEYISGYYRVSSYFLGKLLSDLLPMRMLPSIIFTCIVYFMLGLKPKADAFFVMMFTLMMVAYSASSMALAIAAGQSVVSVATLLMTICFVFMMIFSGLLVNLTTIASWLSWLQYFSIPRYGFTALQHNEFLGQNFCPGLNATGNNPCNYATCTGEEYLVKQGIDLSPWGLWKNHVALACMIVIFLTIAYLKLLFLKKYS
Description: as §1

[2] = antioxidant 200 µM, uptake with DMSO set as 100%, mean ± SD, three replicates, HEK-293-OATP2B1 cells

| Structure (SMILES) | % Uptake of 3H-ES OATP2B1 (OATP2B1; [2]) [%] | Uptake of 3H-ES in HEK-293 cells expressing OATP2B1 (assay validation) (OATP2B1; erlotinib 20 µM, 37 °C, 10 min) | % Uptake of 3H-ES OATP2B1 (OATP2B1) [%] | % Uptake of 3H-NMQ P-gp (P-gp) [%] | LogP [1] | % Uptake of 3H-CCK8 BCRP (BCRP) [%] | Uptake of 3H-CCK8 in BCRP membrane vesicles (assay validation) (BCRP; BSP 200 µM with 5 mM ATP, 37 °C, 20 min) | inhibition at 20 min, 200 µM (P-gp; human, Sf9 membrane vesicles overexpressing human P-gp, pH 7, probe 3H-NMQ, 200 µM, 3H-NMQ) [%] |
| --- | --- | --- | --- | --- | --- | --- | --- | --- |
| O=C(O)c1ccc(O)c(O)c1 [3,4-dihydroxybenzoid acid, 3,4-dihydroxybenzoic acid] | 85.4 ± 4.4 |  |  | 118.9 ± 20 | 0.86 | 78.5 ± 6.9 |  |  |
| O=C(O)CC(O)(CC(=O)O)C(=O)O [Anhydrous citric acid] |  |  |  | 92 ± 2.1 |  | 93.1 ± 6.7 |  |  |
| O=C1O[C@H]([C@@H](O)CO)C(O)=C1O [Ascorbic acid] |  |  |  | 113.6 ± 43.3 | -1.85 | 92.7 ± 5.9 |  |  |
| O=C1OC(c2ccc(O)c(S(=O)(=O)O)c2)(c2ccc(O)c(S(=O)(=O)O)c2)c2c(Br)c(Br)c(Br)c(Br)c21 [Bromosulfophthalein, reference compound] | 10.9 ± 8.1 |  |  | 0.0 ± 22 |  | 0.3 ± 1.2 | significantly reduced the uptake |  |
| COC1=C(OC)C(=O)C(C/C=C(\C)CC/C=C(\C)CC/C=C(\C)CC/C=C(\C)CC/C=C(\C)CC/C=C(\C)CC/C=C(\C)CC/C=C(\C)CC/C=C(\C)CCC=C(C)C)=C(C)C1=O [Co-enzyme Q-10] | 116.1 ± 16.0 |  |  | 90.3 ± 16.3 | 10 | 82.7 ± 16.2 |  |  |
| COc1cc(/C=C/C(=O)CC(=O)/C=C/c2ccc(O)c(OC)c2)ccc1O [Curcumin, reference compound] |  |  |  | 0.0 ± 2.8 |  | 0.0 ± 1.8 |  |  |
| Cl.N[C@@H](CS)C(=O)O [Cysteine hydrochloride] |  |  |  |  |  | 90.0 ± 12.5 |  |  |
| O=C([O-])CN(CCN(CC(=O)[O-])CC(=O)O)CC(=O)O.[Na+].[Na+] [EDTA (edetate disodium), edetate disodium] |  |  |  | 69.3 ± 20.5 |  | 110.4 ± 24.6 |  |  |
| C[N+](C)(C)[C@@H](Cc1c[nH]c(=S)[nH]1)C(=O)[O-] [Ergothioneine] | 118.2 ± 30.6 |  |  | 58.2 ± 23.6 | 0.3 | 112.5 ± 11.2 |  |  |
| O=C1O[C@H]([C@H](O)CO)C(O)=C1O [Erythorbic acid] |  |  |  | 81.8 ± 31.4 | -1.88 | 88.2 ± 7.5 |  |  |
| COc1cc(/C=C/C(=O)O)ccc1O [Ferulic acid] | 136.4 ± 20.7 |  |  | 100.4 ± 16.6 |  | 91.0 ± 4.7 |  |  |
| NCCCC[C@H](N)C(=O)O [Lysine] | 120.3 ± 21.4 |  |  | 32.5 ± 44.3 | -3.05 | 109.0 ± 20.8 |  | ≥ 50 |
| O=P(O)(O)O [Phosphoric acid] |  |  |  |  |  | 83.0 ± 18.0 |  |  |
| C/C=C/C=C/C(=O)[O-].[K+] [Potassium sorbate] | 98.8 ± 19.8 |  |  | 103.5 ± 28.7 |  | 104.8 ± 14.5 |  |  |
| Oc1ccc2c(c1)OCO2 [Sesamol] | 103.1 ± 7.2 |  |  | 121.3 ± 35.1 | 1.57 | 90.3 ± 3.7 |  |  |
| O=S([O-])O.[Na+] [Sodium bisulfite] | 90.1 ± 24.5 |  |  | 96.1 ± 30.4 | -1.2 | 110.4 ± 9.3 |  |  |

Second part, led by results:

| % Uptake of 3H-ES OATP2B1 (OATP2B1; [2]) [%] | Uptake of 3H-ES in HEK-293 cells expressing OATP2B1 (assay validation) (OATP2B1; erlotinib 20 µM, 37 °C, 10 min) | % Uptake of 3H-ES OATP2B1 (OATP2B1) [%] | Structure (SMILES) | % Uptake of 3H-NMQ P-gp (P-gp) [%] | LogP [1] | % Uptake of 3H-CCK8 BCRP (BCRP) [%] | Uptake of 3H-CCK8 in BCRP membrane vesicles (assay validation) (BCRP; BSP 200 µM with 5 mM ATP, 37 °C, 20 min) | inhibition at 20 min, 200 µM (P-gp; human, Sf9 membrane vesicles overexpressing human P-gp, pH 7, probe 3H-NMQ, 200 µM, 3H-NMQ) [%] |
| --- | --- | --- | --- | --- | --- | --- | --- | --- |
| 137.1 ± 34.8 |  |  | Cc1cc(C(C)(C)C)c(O)c(C(C)(C)C)c1 [Butylated hydroxytoluene (BH), Butylated hydroxytoluene] | 98.1 ± 20.3 |  | 102.8 ± 9.2 |  |  |
| 119.8 ± 19.8 |  |  | O=C(O)/C=C/c1ccc(O)c(O)c1 [Caffeic acid] | 133.8 ± 12 |  | 75.8 ± 3.7 |  |  |
| 119.3 ± 27.6 |  |  | NCCC(=O)N[C@@H](Cc1cnc[nH]1)C(=O)O [Carnosine] | 82.6 ± 44 | -4 | 99.7 ± 11.6 |  |  |
|  | significantly inhibited |  | C#Cc1cccc(Nc2ncnc3cc(OCCOC)c(OCCOC)cc23)c1 [Erlotinib, reference compound] | 63 ± 5 |  | 58.5 ± 3.9 |  |  |
| 107.9 ± 7.8 |  |  | N[C@@H](CCC(=O)N[C@@H](CS)C(=O)NCC(=O)O)C(=O)O [Glutathione] | 79.8 ± 15.8 |  | 95.9 ± 2.2 |  |  |
| 125.6 ± 23.0 |  |  | NCC(=O)O [Glycine] |  |  |  |  |  |
| 108.9 ± 4.0 |  |  | N[C@@H](Cc1c[nH]cn1)C(=O)O [Histidine] | 87.6 ± 10.6 | -3.32 | 92.4 ± 1.6 |  |  |
| 113.2 ± 15.2 |  |  | CSCC[C@H](N)C(=O)O [Methionine] | 86.7 ± 24.5 | -1.87 | 94.8 ± 9.4 |  |  |
| 79.3 ± 17.2 |  |  | CCCOC(=O)c1cc(O)c(O)c(O)c1 [Propyl gallate] | 149.1 ± 67.6 |  | 86.5 ± 2.6 |  |  |
|  |  | 101.1 ± 5.8 | O=C(O)C(O)C(O)C(=O)O (stereo not shown) [Tartaric acid] |  | -0.76 |  |  |  |
